According to PubChem BioAssay AID244 (DTP/NCI, 2004):
Values joined by “and” are separate entries in the source; they are usually repeats but may differ in a detail not shown here. Equal values may be shown once. Records with an inconclusive call do not appear. *1 amine or outer side, *2 acyl side, *3 side chain or, on linkers, in order; H or OH if unused. Where a SMILES comes first, the peptide text is derived from it. Bridges are numbered along the chain shown (N, C = ends). Roman numbers before positions name the chains, in order. [ ]: non-standard residue; d: D form. Actinocin(9to1) = Cc1c2oc3c(C)ccc(C(=O)[*:1])c3nc-2c(C(=O)[*:2])c(N)c1=O; aThr = C[C@H](O)[C@H](N)C(=O)O; NMeV = CN[C@H](C(=O)O)C(C)C; Sar = CNCC(=O)O

Tested on: CD2F1 mice, Lymphoma 8 ip, survival T/C
Assay: NCI In Vivo Anticancer Drug Screen. Data for tumor model Lymphoma 8 (intraperitoneal) in CD2F1 (CDF1) mice
Settings: higher = longer survival
Method: The antitumor activity of compounds was measured in mice bearing transplantable tumors. Survival or tumor size were measured and the results are expressed as the measurement made in the treated group (T) divided by the measurement made in the vehicle treated control group (C). The tumor model used in this assay is Lymphoma 8 (intraperitoneal) in CD2F1 (CDF1) mice

[1] = endpoint: median survival time, dose: 50.0 mg/kg/injection, schedule: Q01DX009 (ip), vehicle: saline
[2] = endpoint: median survival time, dose: 100.0 mg/kg/injection, schedule: Q01DX009 (ip), vehicle: saline
[3] = endpoint: median survival time, dose: 200.0 mg/kg/injection, schedule: Q01DX009 (ip), vehicle: saline
[4] = endpoint: median survival time, dose: 400.0 mg/kg/injection, schedule: Q01DX009 (ip), vehicle: saline

With `NC(=O)C(N)CCO` (centres undefined) the T/C [1] was 100 % of control and 102 % of control and 94 % of control, the T/C [2] was 97 % of control [middle of 4 runs] and the T/C (endpoint: median survival time, dose: 100.0 mg/kg/injection, schedule: Q01DX010 (ip), vehicle: saline) was 87 % of control and 88 % of control. For the same molecule, the T/C [3] was 98 % of control [middle of 4 runs], the T/C (endpoint: median survival time, dose: 200.0 mg/kg/injection, schedule: Q01DX010 (ip), vehicle: saline) was 91 % of control [middle of 4 runs] and the T/C [4] was 100 % of control [middle of 4 runs]. For the same molecule, the T/C (endpoint: median survival time, dose: 400.0 mg/kg/injection, schedule: Q01DX010 (ip), vehicle: saline) was 95 % of control [middle of 4 runs].

With `Nc1ncn(C2OC(CO)C(O)C2O)c(=O)n1` (centres undefined) the T/C (endpoint: median survival time, dose: 0.75 mg/kg/injection, schedule: Q01DX005 (ip), vehicle: saline) was 116 % of control and the T/C (endpoint: median survival time, dose: 3.0 mg/kg/injection, schedule: Q01DX005 (ip), vehicle: saline) was 158 % of control.

For `Cc1c2oc3c(C)ccc(C(=O)N[C@@H]4C(=O)N[C@H](C(C)C)C(=O)N5CCC[C@H]5C(=O)N(C)CC(=O)N(C)[C@@H](C(C)C)C(=O)O[C@H]4C)c3nc-2c(C(=O)N[C@@H]2C(=O)N[C@H](C(C)C)C(=O)N3CCC[C@H]3C(=O)N(C)CC(=O)N(C)[C@@H](C(C)C)C(=O)O[C@H]2C)c(N)c1=O` (I: [aThr][dV]P[Sar][NMeV] / II: [aThr][dV]P[Sar][NMeV]; ester I:1-I:C, II:1-II:C; linker I:N-II:N via Actinocin(9to1)), the T/C (endpoint: median survival time, dose: 0.05 mg/kg/injection, schedule: Q01DX002 (ip), vehicle: saline) was 103 % of control, the T/C (endpoint: median survival time, dose: 0.05 mg/kg/injection, schedule: Q04DX002 (ip), vehicle: saline) was 100 % of control and the T/C (endpoint: median survival time, dose: 0.1 mg/kg/injection, schedule: Q04DX002 (ip), vehicle: saline) was 92 % of control. For the same molecule, the T/C (endpoint: median survival time, dose: 0.2 mg/kg/injection, schedule: Q01DX002 (ip), vehicle: saline) was 106 % of control and the T/C (endpoint: median survival time, dose: 0.2 mg/kg/injection, schedule: Q04DX002 (ip), vehicle: saline) was 100 % of control.

With `COc1cc2c(c3c1c(=O)c1ccccc1n3C)C=CC(C)(C)O2` the T/C (endpoint: median survival time, dose: 12.5 mg/kg/injection, schedule: Q01DX009 (ip), vehicle: Klucel (hydroxypropylcellulose) (HPC)) was 100 % of control, the T/C (endpoint: median survival time, dose: 25.0 mg/kg/injection, schedule: Q01DX009 (ip), vehicle: Klucel (hydroxypropylcellulose) (HPC)) was 100 % of control and the T/C (endpoint: median survival time, dose: 50.0 mg/kg/injection, schedule: Q01DX009 (ip), vehicle: Klucel (hydroxypropylcellulose) (HPC)) was 107 % of control. For the same molecule, the T/C (endpoint: median survival time, dose: 100.0 mg/kg/injection, schedule: Q01DX009 (ip), vehicle: Klucel (hydroxypropylcellulose) (HPC)) was 96 % of control.

For `O=C1NC(O)CCN1C1OC(CO)C(O)C1O` (centres undefined), the T/C (endpoint: median survival time, dose: 10.0 mg/kg/injection, schedule: Q01DX015 (ip), vehicle: saline) was 102 % of control and 109 % of control, the T/C (endpoint: median survival time, dose: 10.0 mg/kg/injection, schedule: Q04DX008 (ip), vehicle: saline) was 100 % of control and 101 % of control and the T/C (endpoint: median survival time, dose: 10.0 mg/kg/injection, schedule: Q## X015 (ip), vehicle: saline) was 102 % of control and 109 % of control. For the same molecule, the T/C (endpoint: median survival time, dose: 30.0 mg/kg/injection, schedule: Q01DX015 (ip), vehicle: saline) was 102 % of control and 112 % of control, the T/C (endpoint: median survival time, dose: 30.0 mg/kg/injection, schedule: Q04DX008 (ip), vehicle: saline) was 101 % of control (2×) and 103 % of control and the T/C (endpoint: median survival time, dose: 30.0 mg/kg/injection, schedule: Q## X015 (ip), vehicle: saline) was 102 % of control and 112 % of control. For the same molecule, the T/C (endpoint: median survival time, dose: 100.0 mg/kg/injection, schedule: Q01DX015 (ip), vehicle: saline) was 102 % of control and 104 % of control, the T/C (endpoint: median survival time, dose: 100.0 mg/kg/injection, schedule: Q04DX008 (ip), vehicle: saline) was 101 % of control (2×) and 103 % of control and the T/C (endpoint: median survival time, dose: 100.0 mg/kg/injection, schedule: Q## X015 (ip), vehicle: saline) was 102 % of control and 104 % of control. For the same molecule, the T/C (endpoint: median survival time, dose: 300.0 mg/kg/injection, schedule: Q01DX015 (ip), vehicle: saline) was 99 % of control and 101 % of control, the T/C (endpoint: median survival time, dose: 300.0 mg/kg/injection, schedule: Q04DX008 (ip), vehicle: saline) was 99 % of control and 102 % of control and the T/C (endpoint: median survival time, dose: 300.0 mg/kg/injection, schedule: Q## X015 (ip), vehicle: saline) was 99 % of control and 101 % of control. The T/C (endpoint: median survival time, dose: 1000.0 mg/kg/injection, schedule: Q01DX015 (ip), vehicle: saline) was 101 % of control, the T/C (endpoint: median survival time, dose: 1000.0 mg/kg/injection, schedule: Q04DX008 (ip), vehicle: saline) was 99 % of control and 105 % of control and the T/C (endpoint: median survival time, dose: 1000.0 mg/kg/injection, schedule: Q## X015 (ip), vehicle: saline) was 101 % of control.

With `Nc1ncnc2[nH]ncc12` the T/C (endpoint: survival time, mean or median, dose: 1.5 mg/kg/injection, schedule: Q01DX010 (ip), vehicle: saline) was 90 % of control and 95 % of control, the T/C (endpoint: survival time, mean or median, dose: 3.0 mg/kg/injection, schedule: Q01DX010 (ip), vehicle: saline) was 100 % of control and the T/C (endpoint: survival time, mean or median, dose: 6.0 mg/kg/injection, schedule: Q01DX010 (ip), vehicle: saline) was 90 % of control and 95 % of control. For the same molecule, the T/C (endpoint: survival time, mean or median, dose: 12.0 mg/kg/injection, schedule: Q01DX010 (ip), vehicle: saline) was 90 % of control.

With `NC(=O)CC(N)CO` (centres undefined) the T/C [1] was 87 % of control and 100 % of control, the T/C [2] was 91 % of control and 100 % of control and the T/C [3] was 97 % of control and 98 % of control. The T/C [4] was 91 % of control and 102 % of control.

`NC(=O)c1[nH]nc(C2OC(CO)C(O)C2O)c1O` (centres undefined) was tested, and the T/C (endpoint: median survival time, dose: 2.0 mg/kg/injection, schedule: Q04DX003 (ip), vehicle: saline) was 103 % of control, the T/C (endpoint: median survival time, dose: 4.0 mg/kg/injection, schedule: Q04DX003 (ip), vehicle: saline) was 91 % of control and the T/C (endpoint: median survival time, dose: 8.0 mg/kg/injection, schedule: Q04DX003 (ip), vehicle: saline) was 123 % of control. The T/C (endpoint: median survival time, dose: 16.0 mg/kg/injection, schedule: Q04DX003 (ip), vehicle: saline) was 75 % of control and the T/C (endpoint: median survival time, dose: 32.0 mg/kg/injection, schedule: Q04DX003 (ip), vehicle: saline) was 53 % of control.

`CCSCCC(N)C(=O)O` (centres undefined) was tested, and the T/C (endpoint: median survival time, dose: 37.5 mg/kg/injection, schedule: Q01DX005 (ip), vehicle: saline) was 107 % of control and 109 % of control, the T/C (endpoint: median survival time, dose: 75.0 mg/kg/injection, schedule: Q01DX005 (ip), vehicle: saline) was 100 % of control and 103 % of control and the T/C (endpoint: median survival time, dose: 150.0 mg/kg/injection, schedule: Q01DX005 (ip), vehicle: saline) was 81 % of control.

With `NC(CS(N)(=O)=O)C(=O)O` (centres undefined) the T/C (endpoint: median survival time, dose: 50.0 mg/kg/injection, schedule: Q01DX005 (ip), vehicle: saline) was 92 % of control, the T/C (endpoint: median survival time, dose: 100.0 mg/kg/injection, schedule: Q01DX005 (ip), vehicle: saline) was 92 % of control and the T/C (endpoint: median survival time, dose: 200.0 mg/kg/injection, schedule: Q01DX005 (ip), vehicle: saline) was 96 % of control and 97 % of control. For the same molecule, the T/C (endpoint: median survival time, dose: 400.0 mg/kg/injection, schedule: Q01DX005 (ip), vehicle: saline) was 92 % of control and 94 % of control.

`CC(=O)NC(CCC(=O)C=[N+]=N)C(=O)O` (centres undefined) was tested, and the T/C (endpoint: median survival time, dose: 0.5 mg/kg/injection, schedule: Q01DX002 (ip), vehicle: saline) was 100 % of control, the T/C (endpoint: median survival time, dose: 0.5 mg/kg/injection, schedule: Q04DX002 (ip), vehicle: saline) was 96 % of control and the T/C (endpoint: median survival time, dose: 1.0 mg/kg/injection, schedule: Q01DX002 (ip), vehicle: saline) was 103 % of control. The T/C (endpoint: median survival time, dose: 1.0 mg/kg/injection, schedule: Q04DX002 (ip), vehicle: saline) was 114 % of control, the T/C (endpoint: median survival time, dose: 2.0 mg/kg/injection, schedule: Q01DX002 (ip), vehicle: saline) was 106 % of control and the T/C (endpoint: median survival time, dose: 2.0 mg/kg/injection, schedule: Q04DX002 (ip), vehicle: saline) was 107 % of control.
